Experimental data as given in US9023882B2, “5-membered nitrogen containing heterocyclic derivatives and pharmaceutical compositions comprising the same” (Kissei Pharmaceutical Co., Ltd., priority 2007, dated 2015).

Biological target: Xanthine oxidase (from bovine milk, Sigma) (Bos taurus (Bovine), UniProt P80457)
Experiment: Xanthine oxidase inhibitory activity
Format: biochemical
Conditions: 100 μM xanthine final, absorbance at 290 nm
Description: (1) Preparation of Test Compounds
Test compounds were dissolved in DMSO (Wako) at 40 mM concentration and then diluted to intended concentrations with phosphate-buffered saline (PBS).
(2) Method for Measurement
Xanthine oxidase (from bovine milk, Sigma) was prepared with phosphate-buffered saline (PBS) at 0.02 units/mL, and then the solution was added to 96 well plates at 50 μL/well. In addition, test compounds diluted with PBS were added at 50 μL/well. Xanthine (Wako) at 200 μM prepared with PBS was added at 100 μL/well, and the reaction was conducted for 10 minutes at room temperature. Absorbance at 290 nm was measured using a microplate reader SpectraMax Plus 384 (Molecular device). The absorbance under a condition without xanthine is 0%, and control without test compounds is 100%. Fifty % inhibitory concentration of a test compound (IC50) was calculated (Tables 91 to 92). Ex. No in the table indicates Example number.

Xanthine oxidase (from bovine milk, Sigma), sequence (P80457 whole entry): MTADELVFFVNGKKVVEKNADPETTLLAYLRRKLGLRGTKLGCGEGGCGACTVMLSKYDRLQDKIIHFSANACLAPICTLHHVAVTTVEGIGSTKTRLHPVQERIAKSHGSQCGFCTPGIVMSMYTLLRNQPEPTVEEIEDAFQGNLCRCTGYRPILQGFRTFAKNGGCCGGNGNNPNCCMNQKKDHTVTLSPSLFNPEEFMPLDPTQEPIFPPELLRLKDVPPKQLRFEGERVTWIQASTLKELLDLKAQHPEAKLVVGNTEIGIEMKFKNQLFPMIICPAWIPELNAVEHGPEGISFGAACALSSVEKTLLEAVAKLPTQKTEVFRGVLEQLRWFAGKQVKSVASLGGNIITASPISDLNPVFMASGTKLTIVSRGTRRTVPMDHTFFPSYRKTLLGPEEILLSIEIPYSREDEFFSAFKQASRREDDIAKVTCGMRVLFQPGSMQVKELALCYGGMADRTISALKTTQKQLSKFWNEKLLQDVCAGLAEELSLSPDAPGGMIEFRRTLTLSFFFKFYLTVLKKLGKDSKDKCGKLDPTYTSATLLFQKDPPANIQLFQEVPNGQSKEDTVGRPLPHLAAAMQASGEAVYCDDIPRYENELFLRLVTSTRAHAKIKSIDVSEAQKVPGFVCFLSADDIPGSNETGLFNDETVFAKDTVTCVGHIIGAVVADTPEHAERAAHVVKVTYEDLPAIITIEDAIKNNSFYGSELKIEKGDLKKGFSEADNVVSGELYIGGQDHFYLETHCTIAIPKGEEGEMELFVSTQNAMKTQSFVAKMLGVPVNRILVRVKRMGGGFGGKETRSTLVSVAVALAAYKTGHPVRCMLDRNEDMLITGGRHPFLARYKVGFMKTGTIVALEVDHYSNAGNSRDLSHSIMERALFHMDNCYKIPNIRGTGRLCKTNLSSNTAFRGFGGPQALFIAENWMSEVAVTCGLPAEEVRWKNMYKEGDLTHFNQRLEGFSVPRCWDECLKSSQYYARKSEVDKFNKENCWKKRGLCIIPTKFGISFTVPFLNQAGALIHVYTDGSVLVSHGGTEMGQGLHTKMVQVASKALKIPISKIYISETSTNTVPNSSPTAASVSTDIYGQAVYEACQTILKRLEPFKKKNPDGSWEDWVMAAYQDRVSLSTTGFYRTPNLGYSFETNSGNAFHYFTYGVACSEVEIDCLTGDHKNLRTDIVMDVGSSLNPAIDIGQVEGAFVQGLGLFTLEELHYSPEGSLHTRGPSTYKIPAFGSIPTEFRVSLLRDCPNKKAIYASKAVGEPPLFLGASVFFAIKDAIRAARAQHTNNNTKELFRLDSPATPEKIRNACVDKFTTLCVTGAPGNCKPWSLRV

Structure (SMILES) | IC50
CCc1c(-c2ccccc2)c(C#N)cn1-c1ccc(C(=O)O)c(O)c1 [Example 327] | 0.0071 µM
N#Cc1cn(-c2ccc(C(=O)O)c(O)c2)cc1-c1ccccc1-c1ccccc1 [Example 328] | 0.0093 µM
N#Cc1cccc(-c2cn(-c3ccc(C(=O)O)c(O)c3)cc2C#N)c1 [Example 330] | 0.0199 µM
N#Cc1ccc(-c2cn(-c3ccc(C(=O)O)c(O)c3)cc2C#N)cc1 [Example 331] | 0.0053 µM
N#Cc1cn(-c2ccc(C(=O)O)c(O)c2)cc1-c1ccccc1OCc1ccccc1 [Example 332] | 0.0515 µM
N#Cc1cn(-c2ccc(C(=O)O)c(O)c2)cc1-c1cccc(OCc2ccccc2)c1 [Example 333] | 0.0878 µM
N#Cc1cn(-c2ccc(C(=O)O)c(O)c2)cc1-c1ccc(COc2ccccc2)cc1 [Example 334] | 0.0595 µM
CCOc1ccccc1-c1cn(-c2ccc(C(=O)O)c(O)c2)cc1C#N [Example 335] | 0.0079 µM
CCCOc1ccccc1-c1cn(-c2ccc(C(=O)O)c(O)c2)cc1C#N [Example 336] | 0.0364 µM
N#Cc1cn(-c2ccc(C(=O)O)c(O)c2)cc1-c1ccc(C(=O)O)cc1 [Example 337] | 0.004 µM
N#Cc1cn(-c2ccc(C(=O)O)c(O)c2)cc1-c1cccc(O)c1 [Example 338] | 0.0057 µM
N#Cc1cn(-c2ccc(C(=O)O)c(O)c2)cc1-c1ccc(O)cc1 [Example 339] | 0.0044 µM
CCOc1ccc(-c2cn(-c3ccc(C(=O)O)c(O)c3)cc2C#N)cc1 [Example 340] | 0.0058 µM
CCCOc1cccc(-c2cn(-c3ccc(C(=O)O)c(O)c3)cc2C#N)c1 [Example 341] | 0.01 µM
CCCOc1ccc(-c2cn(-c3ccc(C(=O)O)c(O)c3)cc2C#N)cc1 [Example 342] | 0.0359 µM
CCOc1cccc(-c2cn(-c3ccc(C(=O)O)c(O)c3)cc2C#N)c1 [Example 344] | 0.0135 µM
COCCOc1cccc(-c2cn(-c3ccc(C(=O)O)c(O)c3)cc2C#N)c1 [Example 345] | 0.0257 µM
CC(C)Oc1ccc(-c2cn(-c3ccc(C(=O)O)c(O)c3)cc2C#N)cc1 [Example 346] | 0.0168 µM
COCCOc1ccc(-c2cn(-c3ccc(C(=O)O)c(O)c3)cc2C#N)cc1 [Example 347] | 0.0122 µM
N#Cc1cn(-c2ccc(C(=O)O)c(O)c2)cc1-c1nccs1 [Example 348] | 0.0052 µM

Structure (SMILES) | IC50
CSc1ccccc1-c1cn(-c2ccc(C(=O)O)c(O)c2)cc1C#N [Example 349] | 0.0064 µM
CSc1ccc(-c2cn(-c3ccc(C(=O)O)c(O)c3)cc2C#N)cc1 [Example 350] | 0.0137 µM
O=C(O)c1ccc(-n2ccc([N+](=O)[O-])c2)cc1O [Example 351] | 0.0147 µM
CC(C)(C)c1nn(-c2ccc(C(=O)O)c(O)c2)cc1C#N [Example 352] | 0.0032 µM
N#Cc1ccn(-c2ccc(C(=O)O)c(O)c2)n1 [Example 354] | 0.0667 µM
N#Cc1cn(-c2ccc(C(=O)O)c(O)c2)cc1-c1ccco1 [Example 356] | 0.0017 µM
N#Cc1cn(-c2ccc(C(=O)O)c(O)c2)cc1Cc1ccccc1 [Example 357] | 0.0059 µM
N#Cc1ccn(-c2ccc(C(=O)O)c(O)c2)c1 [Example 358] | 0.0088 µM
Cc1cn(-c2ccc(C(=O)O)c(O)c2)cc1C#N [Example 359] | 0.0061 µM
N#Cc1cn(-c2cc(C(=O)O)ccn2)cc1-c1cccs1 [Example 360] | 0.145 µM
Cc1ccccc1-c1cn(-c2cc(C(=O)O)ccn2)cc1C#N [Example 361] | 0.0885 µM
Cc1cccc(-c2cn(-c3cc(C(=O)O)ccn3)cc2C#N)c1 [Example 362] | 0.0256 µM
Cc1ccc(-c2cn(-c3cc(C(=O)O)ccn3)cc2C#N)cc1 [Example 363] | 0.0213 µM
N#Cc1cn(-c2cc(C(=O)O)ccn2)cc1-c1ccccc1Cl [Example 364] | 0.0227 µM
N#Cc1cn(-c2cc(C(=O)O)ccn2)cc1-c1ccc(Cl)cc1 [Example 365] | 0.0331 µM
COc1ccccc1-c1cn(-c2cc(C(=O)O)ccn2)cc1C#N [Example 366] | 0.0293 µM
COc1cccc(-c2cn(-c3cc(C(=O)O)ccn3)cc2C#N)c1 [Example 367] | 0.025 µM
COc1ccc(-c2cn(-c3cc(C(=O)O)ccn3)cc2C#N)cc1 [Example 368] | 0.0133 µM
N#Cc1cn(-c2cc(C(=O)O)ccn2)cc1-c1ccc2c(c1)OCCO2 [Example 369] | 0.0097 µM
N#Cc1cn(-c2cc(C(=O)O)ccn2)cc1C1=CCCCC1 [Example 370] | 0.0199 µM
